Results: US20070129336A1, “Camphanylidene and phenylalkyl inositol polyphosphate compounds, compositions, and methods of their use” (Inologic, Inc., priority 2003, published 2007)

What was measured:
human CF nasal epithelia = test: Blue Dextran volume transport assay; type: cell-based; details: CF nasal epithelia monolayers, apical application, 18 hours
Description: In normal human airway epithelia, Na+ and Cl− currents (CFTR and Ca2+-activated Cl− currents) contribute to airway surface liquid (ASL) fluid volume regulation depending on signaling equilibria. In contrast, in human CF airway epithelia, Na+ currents through ENaC dominate basal ASL volume regulation accompanied by a relatively minor contribution through Ca2+-activated Cl− currents. The combination of enhanced ENaC currents and transient Ca2+-activated Cl− currents in CF result in an inadequate hydration of the ASL and reduction of mucociliary clearance. […] The resulting reduction in the ability of these monolayers to concentrate BD was taken as a functional indicator of the test compound's involvement in the inhibition of ENaC.
All procedures were performed aseptically. The Blue Dextran (BD) stock solution was prepared with HEPES modified Ringer's buffer (HMRB) (2 mg BD/ml buffer). The compounds tested were solubilized in HMRB containing ˜1 μM BD. Final concentration of vehicle is 0.1% unless otherwise indicated (1:1, DMSO+DMSO containing 5% (w/v) pluronic-F127). The composition of HMRB (pH 7.3, 6.7 when equilibrated with 95%air/5%CO2) is as follows (in mM): 135 NaCl, 1.2 CaCl2, 1.2 MgCl2, 2.4 K2HPO4, 0.6 KH2PO4, 10 HEPES, 10 glucose (˜285 mOsm.). 200 μl of the BD solution was applied to the apical surface and placed in a highly humidified incubator (Forma model 3956 set on “high” humidity) for 18 hours. Basolateral buffer consisted of BEGM (˜300 mOsm.). After 18 hours, 60 μl of the remaining apical buffer was sampled and transferred to a 0.7 ml micro-centrifuge tube for storage until analysis. A standard concentration curve was obtained by determining the optical densities, at 660 nm, of a serial dilution of 10 μM Blue Dextran in HMRB in a 96-well plate using a Packard Spectracount. The [BD] of the samples, which were read on the same plate, was determined by extrapolation from the BD standard curve using Packard I-Smart software. The increase in [BD] from the starting value of 1 μM was taken to be an indication of the magnitude of volume absorption occurring across the monolayer. The rate of absorption was calculated by dividing the change in volume by the duration of the experiment. This value was normalized to a surface area of 1 cm^2, to give μl·cm2 −1·hr −1. All experiments, unless otherwise indicated, were conducted over a period of 18 hours.

iNOS = test: Survey of iNOS inhibition, 2 hr LPS pre-stimulation (nitrite by Greiss reagent); type: cell-based, murine; details: RAW 264.7 cells, LPS/ATP stimulation for two hours, then compound added
Protocol: We chose the well characterized LPS stimulation of the murine macrophage cell line RAW 264.7, that produces substantial quantities of NO, to screen inositol polyphosphate compounds in vitro (FIGS. 8-12 and Table 1). This assay system offers a number of opportunities to characterize drug action as pre-transcriptional, post transcriptional, translational or post translational.
Nitrite (NO2^−) accumulation in cell-free supernatant, used as an indicator of NO production, was measured using the modified Greiss reagent (Sigma G4410, St Louis, Mo.). This method was applied as described elsewhere (Martinez, J. et al., “Regulation of prostaglandin E2 production by the superoxide radical and nitric oxide in mouse peritoneal macrophages,” Free Radical Res 32:303-311 (2000)). Briefly, RAW264.7 cells (ATCC, #TIB-71) were maintained in standard tissue culture flasks and with DMEM+10% heat inactivated fetal bovine serum(HI-FBS) (Fetal-bovine serum, Heat-inactivated, Sercare Life Sciences, Oceanside, Calif.). Experiments were initiated by seeding logarithmic cells at […] per well in a 96-well plate in phenol-red free RPMI 1640 (Sigma #R8755)+10% HI-FBS at least four hours before the initiation of the experiment. Cells were exposed to treatment compounds for a minimum of 30 minutes in RPMI-1640 supplemented with 10% fetal calf serum. The compound treatment was removed and inflammatory compounds dissolved in RPMI-1640 supplemented with 10% FBS were applied to the cells. Stimulated cells and appropriate controls were incubated for 18-24 hours before sampling 50 μl of the cell-free supernatant from each well. This sample of supernatant was combined with 25 μl of a nitrate reductase cocktail (0.1 units/ml nitrate reductase enzyme, 5 μM FAD, 30 μM NADPH) and incubated for 30 minutes[…]. To this mixture, 25 μl of LDH cocktail (100 units/ml rabbit muscle lactate dehydrogenase in 0.3 mM sodium pyruvate) was added and the total mixture was incubated another 5-10 min at […]. Greiss reagent was added in 100 μl amounts to each 100 μl experimental sample. Color development proceeded for a minimum of 10 minutes while protected from light. Nitrite levels were compared to a sodium nitrite standard curve freshly prepared in the same medium used for the growth and incubation of the cells and treated with the same enzyme treatments. Color development was recorded by using a Packard Spectracount Plate reader at 540 nm wave length.
It is important to identify the conditions under which the compounds exert their greatest desired effect with the minimal adverse effects. Understanding this relationship is important as signaling molecule mimetics may require special conditions of concentration and duration to generate the desired therapeutic effect. To ascertain whether effects could be observed post-exposure to stimulus, cells were exposed to the LPS/ATP stimulation for two hours at […] after which compound was added.

CFHNE cell monolayers = test: Cystic fibrosis human nasal epithelial cell Ussing chamber assay; type: cell-based; details: 2 hour pretreatment, measured 22 hours later
Description: CF Human Nasal Epithelial (CFHNE) Cell Isolation and Proliferation: Surgically removed nasal polyps were obtained from volunteers in collaboration with Dr. Bonnie Ramsey at Children's Hospital, Seattle and Dr. Ludwig Allegra at the Northwest Nasal Sinus Center, and transported on ice in a sterile container containing a 1:1 mixture of Dulbecco's modification of minimum essential medium Eagle and Ham's F-12 nutrient medium (DMEM/F-12)(Irvine Scientific, Santa Ana, Calif.) supplemented with 100 U/ml penicillin, 0.1 mg/ml streptomycin, 10 mM HEPES, and 2 mM L-glutamine. The tissue samples were aseptically removed from the transport medium and washed (repeated 5X) by suspending in 40 ml of Joklik's modification of minimum essential medium Eagle (JMEM) at 4° C., and centrifuging at 500 RPM. The supernatant was aspirated and discarded. The tissue was then transferred to JMEM containing 200 U/ml penicillin, 0.2 mg/ml streptomycin, 0.1 mg/ml gentamicin sulfate (Clonetics, San Diego, Calif.), and 0.1 μg/ml amphotericin-B (Clonetics), and 0.1% Protease (Sigma), washed an additional 2×, suspended in 15 ml in a 10 cm tissue culture dish, and incubated at 4° C. for 24 hours. The tissue samples were then gently triturated, the connective tissue aseptically removed, and the remaining cell suspension centrifuged at 1000 RPM for 5 min. […] The cells were then counted using a hemocytometer. […]

Row | IC50 (iNOS; experiment 1 of three) | IC50 (iNOS; experiment 2 of three) | IC50 (iNOS; experiment 3 of three) | Compound | inhibition of fluid absorption (human CF nasal epithelia) | effect on basal Isc (CFHNE cell monolayers)
1 | – | – | – | N=C(N)NC(=O)c1nc(Cl)c(N)nc1N [amiloride, reference compound] | inhibited fluid absorption measured by the Blue Dextran assay in a dose dependent fashion | –
2 | 18 µM | 3.13 µM | 12.5 µM | CCC(=O)OCOP(=O)(OCOC(=O)CC)OC1C2OC3(CC4CCC3(C)C4(C)C)OC2C(OP(=O)(OCOC(=O)CC)OCOC(=O)CC)C(OP(=O)(OCOC(=O)CC)OCOC(=O)CC)C1OP(=O)(OCOC(=O)CC)OCOC(=O)CC (centres unmarked) [INO-4984, 2,3-camphanylidene-myo-inositol 1,4,5,6-tetrakisphosphate octakis (propionoxymethyl) ester] | dose dependent inhibition of fluid absorption | –
3 | 12.5 µM | 12.5 µM | 9 µM | CCCC(=O)OC1C(OCCCc2ccccc2)C(OP(=O)(OCOC(=O)CC)OCOC(=O)CC)C(OP(=O)(OCOC(=O)CC)OCOC(=O)CC)C(OP(=O)(OCOC(=O)CC)OCOC(=O)CC)C1OP(=O)(OCOC(=O)CC)OCOC(=O)CC (centres unmarked) [INO-4997, 2-O-butyryl-1-O-(3-phenylpropyl)-myo-inositol 3,4,5,6-tetrakisphosphate octakis (propionoxymethyl) ester] | dose dependent inhibition of fluid absorption | prolonged effect
4 | 6.25 µM | 3.13 µM | 6.25 µM | CCC(=O)OCOP(=O)(OCOC(=O)CC)OC1C2OC3(CC4CCC3(C)C4(C)C)OC2C(OP(=O)(OCOC(=O)CC)OCOC(=O)CC)C(OP(=O)(OCOC(=O)CC)OCOC(=O)CC)C1OP(=O)(OCOC(=O)CC)OCOC(=O)CC (centres unmarked) [INO-4996, 1,2-camphanylidene-myo-inositol 3,4,5,6-tetrakisphosphate octakis (propionoxymethyl) ester] | dose dependent inhibition of fluid absorption | –
